Article PMC6413118, “Active Components, Antioxidant, Inhibition on Metabolic Syndrome Related Enzymes, and Monthly Variations in Mature Leaf Hawk Tea” (Molecules, 2019)

Biological target: T1, porcine pancreatic lipase (Sus scrofa, UniProt P00591)
T1 construct: gene PNLIP; EC printed is that of carboxylesterase
T1 sequence (P00591 1-450): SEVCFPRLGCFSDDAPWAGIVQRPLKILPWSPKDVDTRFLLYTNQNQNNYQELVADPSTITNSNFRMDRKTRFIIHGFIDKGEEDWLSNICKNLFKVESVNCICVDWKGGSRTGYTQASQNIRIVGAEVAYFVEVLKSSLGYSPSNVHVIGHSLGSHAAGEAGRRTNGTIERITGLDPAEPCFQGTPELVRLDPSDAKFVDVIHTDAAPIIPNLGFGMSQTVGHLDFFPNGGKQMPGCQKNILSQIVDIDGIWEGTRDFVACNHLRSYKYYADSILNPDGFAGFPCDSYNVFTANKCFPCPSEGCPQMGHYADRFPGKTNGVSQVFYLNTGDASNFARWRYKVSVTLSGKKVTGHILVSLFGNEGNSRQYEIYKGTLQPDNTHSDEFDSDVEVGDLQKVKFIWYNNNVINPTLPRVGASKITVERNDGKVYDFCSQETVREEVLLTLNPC
Experiment: p-nitrophenyl palmitate hydrolysis, absorbance […] nm, microplate
Type: biochemical
Details: 10 mM p-nitrophenyl palmitate stock (20 μL), 0.1 M sodium phosphate pH 7, 37 °C, 20 min; unreliable: table and text disagree tenfold

Lipase IC50: 0.6 µg/mL
SMILES: CCCCCCCCCCC[C@@H](C[C@@H]1OC(=O)[C@H]1CCCCCC)OC(=O)[C@H](CC(C)C)NC=O [Orlistat]
